Experimental data published in PubChem BioAssay AID1259407 (Chemical Carcinogenesis Research Information System (CCRIS), 2018).
Active and inactive are the calls of the source. How the calls were made is not given here.

Tested on: CCRIS mutagenicity, Ames/micronucleus/aberration tests
Experiment: CCRIS mutagenicity studies
[1] = Test System: AMES SALMONELLA TYPHIMURIUM, Strain/Indicator: TA98, Metabolic Activation: NONE, Method: STANDARD PLATE
[2] = Test System: AMES SALMONELLA TYPHIMURIUM, Strain/Indicator: TA98, Metabolic Activation: RAT, LIVER, S-9, AROCLOR 1254, Method: STANDARD PLATE
[3] = Test System: AMES SALMONELLA TYPHIMURIUM, Strain/Indicator: TA100, Metabolic Activation: NONE, Method: STANDARD PLATE
[4] = Test System: AMES SALMONELLA TYPHIMURIUM, Strain/Indicator: TA100, Metabolic Activation: RAT, LIVER, S-9, AROCLOR 1254, Method: STANDARD PLATE
[5] = Test System: AMES SALMONELLA TYPHIMURIUM, Strain/Indicator: TA1535, Metabolic Activation: NONE, Method: STANDARD PLATE
[6] = Test System: AMES SALMONELLA TYPHIMURIUM, Strain/Indicator: TA1535, Metabolic Activation: RAT, LIVER, S-9, AROCLOR 1254, Method: STANDARD PLATE
[7] = Test System: AMES SALMONELLA TYPHIMURIUM, Strain/Indicator: TA1538, Metabolic Activation: NONE, Method: STANDARD PLATE
[8] = Test System: AMES SALMONELLA TYPHIMURIUM, Strain/Indicator: TA1538, Metabolic Activation: RAT, LIVER, S-9, AROCLOR 1254, Method: STANDARD PLATE

CN(C)c1ccc(C(=C2C=CC(=[N+](C)C)C=C2)c2c(O)c(S(=O)(=O)[O-])cc3cc(S(=O)(=O)O)ccc23)cc1
mutagenic call [1]: inactive; negative | mutagenic call [2]: inactive; negative | mutagenic call [3]: inactive; negative | mutagenic call [4]: inactive; negative | mutagenic call [5]: inactive; negative | mutagenic call [6]: inactive; negative | mutagenic call [7]: inactive; negative | mutagenic call [8]: inactive; negative

c1ccc(-c2cccc(-c3ccccn3)n2)nc1
mutagenic call (Test System: AMES SALMONELLA TYPHIMURIUM, Strain/Indicator: TA97, Metabolic Activation: RAT, LIVER, S-9, PHENOBARBITAL, Method: STANDARD PLATE): active; positive | mutagenic call (Test System: AMES SALMONELLA TYPHIMURIUM, Strain/Indicator: TA98, Metabolic Activation: RAT, LIVER, S-9, PHENOBARBITAL, Method: STANDARD PLATE): inactive; negative | mutagenic call (Test System: AMES SALMONELLA TYPHIMURIUM, Strain/Indicator: TA100, Metabolic Activation: RAT, LIVER, S-9, PHENOBARBITAL, Method: STANDARD PLATE): active; positive | mutagenic call (Test System: AMES SALMONELLA TYPHIMURIUM, Strain/Indicator: TA1535, Metabolic Activation: RAT, LIVER, S-9, PHENOBARBITAL, Method: STANDARD PLATE): inactive; negative | mutagenic call (Test System: AMES SALMONELLA TYPHIMURIUM, Strain/Indicator: TA1537, Metabolic Activation: RAT, LIVER, S-9, PHENOBARBITAL, Method: STANDARD PLATE): inactive; negative | mutagenic call (Test System: AMES SALMONELLA TYPHIMURIUM, Strain/Indicator: TA1538, Metabolic Activation: RAT, LIVER, S-9, PHENOBARBITAL, Method: STANDARD PLATE): inactive; negative

COc1cc(-c2ccc(N/N=C3/C(=O)c4c(N)cc(S(=O)(=O)O)cc4C=C3S(=O)(=O)O)c(OC)c2)ccc1N/N=C1/C(=O)c2c(N)cc(S(=O)(=O)O)cc2C=C1S(=O)(=O)O
mutagenic call (End Point: IN VITRO CHROMOSOMAL ABERRATIONS, Test System: CHINESE HAMSTER OVARY CELLS, Metabolic Activation: NONE): inactive; negative | mutagenic call (End Point: IN VITRO CHROMOSOMAL ABERRATIONS, Test System: CHINESE HAMSTER OVARY CELLS, Metabolic Activation: RAT, LIVER, S-9, AROCLOR 1254): inactive; negative | mutagenic call (Test System: AMES SALMONELLA TYPHIMURIUM, Strain/Indicator: SV50, Metabolic Activation: HAMSTER, LIVER, S-9, Method: PREINCUBATION (PRIVAL METHOD)): active; positive | mutagenic call (Test System: AMES SALMONELLA TYPHIMURIUM, Strain/Indicator: SV50, Metabolic Activation: RAT, LIVER, S-9, AROCLOR 1254, Method: PREINCUBATION (PRIVAL METHOD)): active; positive | mutagenic call (Test System: AMES SALMONELLA TYPHIMURIUM, Strain/Indicator: TA98, Metabolic Activation: HAMSTER, LIVER, S-9, AROCLOR 1254 (10%), Method: PREINCUBATION): inactive; negative | mutagenic call (Test System: AMES SALMONELLA TYPHIMURIUM, Strain/Indicator: TA98, Metabolic Activation: HAMSTER, LIVER, S-9, Method: PREINCUBATION (PRIVAL METHOD)): active; positive | mutagenic call (Test System: AMES SALMONELLA TYPHIMURIUM, Strain/Indicator: TA98, Metabolic Activation: NONE, Method: PREINCUBATION): inactive; negative | mutagenic call (Test System: AMES SALMONELLA TYPHIMURIUM, Strain/Indicator: TA98, Metabolic Activation: RAT, LIVER, S-9, AROCLOR 1254 (10%), Method: PREINCUBATION): inactive; negative | mutagenic call (Test System: AMES SALMONELLA TYPHIMURIUM, Strain/Indicator: TA98, Metabolic Activation: RAT, LIVER, S-9, AROCLOR 1254, Method: PREINCUBATION (PRIVAL METHOD)): active; positive | mutagenic call (Test System: AMES SALMONELLA TYPHIMURIUM, Strain/Indicator: TA100, Metabolic Activation: HAMSTER, LIVER, S-9, AROCLOR 1254 (10%), Method: PREINCUBATION): inactive; negative | mutagenic call (Test System: AMES SALMONELLA TYPHIMURIUM, Strain/Indicator: TA100, Metabolic Activation: NONE, Method: PREINCUBATION): inactive; negative | mutagenic call (Test System: AMES SALMONELLA TYPHIMURIUM, Strain/Indicator: TA100, Metabolic Activation: RAT, LIVER, S-9, AROCLOR 1254 (10%), Method: PREINCUBATION): inactive; negative | mutagenic call (Test System: AMES SALMONELLA TYPHIMURIUM, Strain/Indicator: TA1535, Metabolic Activation: HAMSTER, LIVER, S-9, AROCLOR 1254 (10%), Method: PREINCUBATION): inactive; negative | mutagenic call (Test System: AMES SALMONELLA TYPHIMURIUM, Strain/Indicator: TA1535, Metabolic Activation: NONE, Method: PREINCUBATION): inactive; negative | mutagenic call (Test System: AMES SALMONELLA TYPHIMURIUM, Strain/Indicator: TA1535, Metabolic Activation: RAT, LIVER, S-9, AROCLOR 1254 (10%), Method: PREINCUBATION): inactive; negative | mutagenic call (Test System: AMES SALMONELLA TYPHIMURIUM, Strain/Indicator: TA1537, Metabolic Activation: HAMSTER, LIVER, S-9, AROCLOR 1254 (10%), Method: PREINCUBATION): inactive; negative | mutagenic call (Test System: AMES SALMONELLA TYPHIMURIUM, Strain/Indicator: TA1537, Metabolic Activation: NONE, Method: PREINCUBATION): inactive; negative | mutagenic call (Test System: AMES SALMONELLA TYPHIMURIUM, Strain/Indicator: TA1537, Metabolic Activation: RAT, LIVER, S-9, AROCLOR 1254 (10%), Method: PREINCUBATION): inactive; negative | mutagenic call (Test System: AMES SALMONELLA TYPHIMURIUM, Strain/Indicator: TA1538, Metabolic Activation: FLAVIN MONONUCLEOTIDE REDUCTION, HAMSTER, LIVER, S-9, Method: PREINCUBATION): active; positive | mutagenic call (Test System: AMES SALMONELLA TYPHIMURIUM, Strain/Indicator: TA1538, Metabolic Activation: RAT, CECAL BACTERIAL REDUCTION, S-9, AROCLOR 1254, Method: PREINCUBATION): active; positive | mutagenic call (Test System: AMES SALMONELLA TYPHIMURIUM, Strain/Indicator: TA1538, Metabolic Activation: RAT, LIVER, S-9, AROCLOR 1254, Method: PREINCUBATION): active; positive | mutagenic call [8]: active; positive

COc1ccc(-c2coc3cc(O)cc(O)c3c2=O)cc1
mutagenic call (Test System: AMES SALMONELLA TYPHIMURIUM, Strain/Indicator: TA98, Metabolic Activation: HAMSTER, LIVER, S-9, AROCLOR 1254, Method: STANDARD PLATE): inactive; negative | mutagenic call [1]: inactive; negative | mutagenic call [2]: inactive; negative | mutagenic call (Test System: AMES SALMONELLA TYPHIMURIUM, Strain/Indicator: TA100, Metabolic Activation: HAMSTER, LIVER, S-9, AROCLOR 1254, Method: STANDARD PLATE): inactive; negative | mutagenic call [3]: inactive; negative | mutagenic call [4]: inactive; negative | mutagenic call (Test System: AMES SALMONELLA TYPHIMURIUM, Strain/Indicator: TA1535, Metabolic Activation: HAMSTER, LIVER, S-9, AROCLOR 1254, Method: STANDARD PLATE): inactive; negative | mutagenic call [5]: inactive; negative | mutagenic call [6]: inactive; negative | mutagenic call (Test System: AMES SALMONELLA TYPHIMURIUM, Strain/Indicator: TA1537, Metabolic Activation: HAMSTER, LIVER, S-9, AROCLOR 1254, Method: STANDARD PLATE): inactive; negative | mutagenic call (Test System: AMES SALMONELLA TYPHIMURIUM, Strain/Indicator: TA1537, Metabolic Activation: NONE, Method: STANDARD PLATE): inactive; negative | mutagenic call (Test System: AMES SALMONELLA TYPHIMURIUM, Strain/Indicator: TA1537, Metabolic Activation: RAT, LIVER, S-9, AROCLOR 1254, Method: STANDARD PLATE): inactive; negative | mutagenic call (Test System: AMES SALMONELLA TYPHIMURIUM, Strain/Indicator: TA1538, Metabolic Activation: HAMSTER, LIVER, S-9, AROCLOR 1254, Method: STANDARD PLATE): inactive; negative | mutagenic call [7]: inactive; negative | mutagenic call [8]: inactive; negative | mutagenic call (Test System: MOUSE LYMPHOMA, Strain/Indicator: L5178Y (TK+/TK-), Metabolic Activation: NONE, Method: SUSPENSION/PLATE): active; positive. reevaluation of results: inconclusive | mutagenic call (Test System: MOUSE LYMPHOMA, Strain/Indicator: L5178Y (TK+/TK-), Metabolic Activation: RAT, LIVER, S-9, AROCLOR 1254, Method: SUSPENSION/PLATE): active; positive. reevaluation of results: positive | mutagenic call (Test System: SYRIAN HAMSTER EMBRYO CELLS, Strain/Indicator: HPRT/6-THIOGUANINE, Metabolic Activation: NONE, Method: PLATE): inactive; negative
